Source: patent US20120318750A1, “METHODS AND COMPOSITIONS FOR COMPLEX BINDING OF METAL IONS” (ChemseQ International AB, priority 2009, published 2012)

Tests used:
[1] = Flotation of manganese ions with sequestering agent in a flotation cell, metal analysis of foam; settings: 1 mg manganese as manganese sulphate, sequestering agent:metal 1.2:1, pH 5.5, flotation approx. 30 min
Description: In order to investigate the separability of a sequestering agent according to the invention a small flotation cell was used. This flotation cell has a volume of approximately 1.6 l, a height of 315 mm and an inner diameter of 80 mm. Compressed air used to form the foam is led through a porous sintered glass filter of diameter 60 mm with a nominal porosity of 10-16 μm (“porosity 4”) mounted at the bottom of the flotation cell. At the top of the flotation cell a cylinder of an inner diameter of 30 mm and a height of 415 mm, with an outlet placed at 72 mm from the bottom, is mounted. The outlet is used to collect the foam and thereby the chelate according to the invention. At the top of the latter cylinder an adjustable valve is mounted to be able to better control the foaming and to direct the foam to the outlet.
was prepared from 2-aminoethanol, tert-butyl bromoacetate and tert-butyl 2-aminotetradecanoate as main ingredients using conventional techniques and was therafter mixed in 500 ml deionised water with 1 mg of manganese in the form of manganese sulphate (in a molar ratio of 1.2:1=sequestering agent: manganese sulphate) and a flotation agent (N,N-dimethyldodecylamine N-oxide, in a molar ratio of 10:1=flotation agent:sequestering agent).
The pH-value of the solution was adjusted to pH 5.5 with 0.1 M sodium hydroxide solution or 0.1 M hydrogen chloride solution. […]

[2] = Flotation of copper ions with sequestering agent in a flotation cell, metal analysis of foam; settings: 1 mg copper as copper sulphate, sequestering agent:metal 1.2:1, pH 5.5, flotation approx. 30 min
[3] = Precipitation/recovery from a copper(II) sulfate solution by electrolysis, then acidification (Experimental Example 6); settings: electrolysis pH 12, 50 min, 300-350 mA
Method: The recovery of 2-dodecyl-3-carboxymethyl-3-azapentane diacid was performed in a two-step procedure.
(§1) In the first stage metal ions was removed from the solution by electrolysis at a specified pH and current intensity: The equipment to perform the electrolysis consisted of a Manson EP-601 rectifier and two platinum electrodes in form of a spring (anode) and a basket (cathode).
To a solution of 2-dodecyl-3-carboxymethyl-3-azapentane diacid and copper in the form of copper(II) sulfate (30 ml, in a molar ratio of 1.2:1=sequestering agent: copper(II) sulfate, [sequestrent]=10.5 mM, [Cu^2+]=655 ppm) in a beaker was sodium sulphate (corresponding to 50 mg/l) added, in order to receive wished current intensity. Solutions of 1 M aqueous sodium hydroxide was added to adjust the pH to 12. The total volume of the solution was 150 ml. The electrolysis was performed during 50 min. at a current intensity of 300-350 mA.
In the second step the electrolysis solution was acidified with 1 M aqueous hydrogen chloride to pH=2.4. The precipitated material was removed by filtration (glass filter—Schott u.Gen Mainz 1G2) and dried in a vacuum chamber at 0.8 mbar for 24 hours.
(§2) 99.6 mg precipitate was obtained. Organic analyses were made with the aid of an ESI-MS (recorded on a Micromass Quattro II mass spectrometer coupled with a Harvard Apparatus Pump 11 syringe pump directly into the ESI source of the mass spectrometer at a flow rate of 6 μl/min. The data was processed using MassLynx 4.0 software) in positive and negative mode, and NMR with a Varian 500 instrument. The precipitate contained exclusively of 2-dodecyl-3-carboxymethyl-3-azapentane diacid.
Metal analyses were made with the aid of a Perkin-Elmer AA300 atomic absorption spectrometer.

[4] = Solubility of sequestering agent in a copper(II) chloride solution on stepwise acidification; type: physicochemical; settings: 5.66 mM sequestrent, 300 ppm copper, room temperature
Method: A stock solution of 4-dodecyl-3,6,9-tri(carboxymethyl)-3,6,9-triazaundecane diacid and copper in the form of copper(II) chloride (20 ml, in a molar ratio of 1.2:1=sequestering agent: copper(II) chloride, [Cu^2+]=900 ppm, pH=4.5) was diluted with milliQ-water to a total volume of 60 ml in a beaker, corresponding to a solution with an initial sequestrent and copper concentration of 5.66 mM and 300 ppm, respectively. To this solution 2 M aqueous hydrogen chloride was added stepwise, under magnetical stirring at room temperature, to follow the solubility behavior of 4-dodecyl-3,6,9-tri(carboxymethyl)-3,6,9-triazaundecane diacid.

[5] = Precipitation/recovery of sequestering agent from a copper(II) chloride solution by acidification to pH 1.8; settings: acidified to pH=1.8, 5.66 mM sequestrent, 300 ppm copper
Method: A stock solution of 4-dodecyl-3,6,9-tri(carboxymethyl)-3,6,9-triazaundecane diacid and copper in the form of copper(II) chloride (20 ml, in a molar ratio of 1.2:1=sequestering agent: copper(II) chloride, [Cu^2+]=900 ppm, pH=4.5) was diluted with milliQ-water to a total volume of 60 ml in a beaker, corresponding to a solution with an initial sequestrent- and copper concentration of 5.66 mM and 300 ppm, respectively. To this solution 2 M aqueous hydrogen chloride was added under magnetical stirring at room temperature to pH=1.8. A light blue precipitate was removed by filtration (P3 glass filter) leaving a colourless transparent filtrate. The light blue precipitate was dried in a vacuum chamber at 0.8 mbar for 19 hours resulting in a light blue solid.
as §2, with “270” for “99.6”, “mode.” for “mode, and NMR with a Varian 500 instrument. The precipitate contained exclusively of 2-dodecyl-3-carboxymethyl-3-azapentane diacid.”
The precipitate contained exclusively of 4-dodecyl-3,6,9-tri(carboxymethyl)-3,6,9-triazaundecane diacid and complexed sequestering agent. […] Metal analyses were made with the aid of a Perkin-Elmer AA300 atomic absorption spectrometer. […]

[6] = Precipitation/recovery from a copper(II) chloride solution by electrolysis with cation exchange membrane, then acidification (Experimental Example 7); settings: electrolysis starting pH 4.1, 60 min, 250-300 mA
Method: The recovery of 4-dodecyl-3,6,9-tri(carboxymethyl)-3,6,9-triazaundecane diacid was performed in a two-step procedure.
as §1, with “intensity.” for “intensity:”, “EP-60.1” for “EP-601”, “(cathode). The electrodes were separated with a cationic exchange membrane (CMI-7000 Cation exchange membranes—Membranes International INC.)” for “(cathode).”
To a solution of 4-dodecyl-3,6,9-tri(carboxymethyl)-3,6,9-triazaundecane diacid and copper in the form of copper(II) chloride (30 ml, in a molar ratio of 1.2:1=sequestering agent: copper(II) chloride, [Cu^2+]=900 ppm, pH=4.5) in a beaker was sodium sulphate (corresponding to 0.1 M), in order to receive wished current intensity. The pH of the starting solution was 4.1. The total volume of the solution was 300 ml. The electrolysis was performed during 60 min. at a current intensity of 250-300 mA.
In the second step the electrolysis solution was acidified with 1 M aqueous hydrogen chloride to pH=2.4. The precipitated material was removed by filtration (glass filter—Schott u.Gen Mainz 1G2) and dried in a vacuum chamber at 0.8 mbar for 22 hours.
as §2, with “198.7” for “99.6”, “μL/min.” for “μl/min.”, “4-dodecyl-3,6,9-tri(carboxymethyl)-3,6,9-triazaundecane” for “2-dodecyl-3-carboxymethyl-3-azapentane”, “diacid. Metal analyses were made with the aid of a Perkin-Elmer AA300 atomic absorption spectrometer.” for “diacid.”

Row | solubility observation ([4]; pH<0.5) | solubility observation ([4]; pH=2.8-0.5) | solubility observation ([4]; pH=4.5-2.8) | Compound | added manganese found in the foam [1] | added copper found in the foam [2] [%] | copper found on the cathode [3] [%] | copper found in the filtrate ([3]; then acidified to pH=2.4) [%] | copper found in the precipitate ([3]; then acidified to pH=2.4) [%] | copper found in the filtrate [5] [%] | copper found in the precipitate [5] [%] | copper found on the cathode [6] [%] | copper found in the filtrate ([6]; then acidified to pH=2.4) [%] | copper found in the precipitate ([6]; then acidified to pH=2.4) [%]
1 | – | – | – | CCCCCCCCCCCCC(C(=O)O)N(CCN(CC(=O)O)CC(=O)O)CC(=O)O (stereo not drawn) [2-dodecyl-3,6-di(carboxymethyl)-3,6-diazaoctane diacid] | About 35% | ~65 | – | – | – | – | – | – | – | –
2 | – | – | – | CCCCCCCCCCCCC(C(=O)O)N(CC(=O)O)CC(=O)O (stereo not drawn) [2-dodecyl-3-carboxymethyl-3-azapentane diacid] | About 10% | ~70 | 99.4 | 0.1 | 0.5 | – | – | – | – | –
3 | A clear blue aqueous solution | Precipitated material is observed | A clear blue aqueous solution | CCCCCCCCCCCCC(CN(CCN(CC(=O)O)CC(=O)O)CC(=O)O)N(CC(=O)O)CC(=O)O (stereo not drawn) [4-dodecyl-3,6,9-tri(carboxymethyl)-3,6,9-triazaundecane diacid] | – | – | – | – | – | 1 | 99 | 99.8 | 0.1 | 0.1
